Data on two compounds can be found in patent publication US11945800B1, “1-cyclopropyl-6-fluoro-4-oxo-7-(4-((5-oxo-2-phenyl-4-(quinolin-2-ylmethylene)-4,5-dihydro-1H-imidazol-1-yl)methyl)piperazin-1-yl)-1,4-dihydroquinoline-3-carboxylic acid as an anti-inflammatory and anticancer compound” (KING FAISAL UNIVERSITY, priority 2023, dated 2024).

The subject of data set [1] is human prostate cancer cells (PC3). Description: Cytotoxicity by SRB assay, prostate cancer cells. It is filed as cell-based. The note with it: for IC50: PC-3, 72 h, mean±SD. On the procedure: (§1) The human prostate cancer cells (PC3) and human osteosarcoma cells (MG-63) were obtained from Nawah Scientific Inc. (Mokatam, Cairo, Egypt) and cultured in DMEM (Dulbecco's modified eagle's medium), Gibco, USA, supplemented with fetal bovine serum (FBS) at a concentration of 10% and 100 U/mL of penicillin and streptomycin (PS). The Cells were incubated at 37° C. in a humidified environment that contained 5% CO2.
(§2) The anticancer activity of 1-cyclopropyl-6-fluoro-4-oxo-7-(4-((5-oxo-2-phenyl-4-(quinolin-2-ylmethylene)-4,5-dihydro-1H-imidazol-1-yl)methyl)piperazin-1-yl)-1,4-dihydroquinoline-3-carboxylic acid was assessed against highly aggressive androgen-independent metastatic human prostate cancer cells (PC3) and osteosarcoma (MG-63) cells.
(§3) Cells were seeded in 96-well plates as aliquots of 100 μL cell suspension and incubated in a complete media for 24 h. afterward, cells were treated with 1-cyclopropyl-6-fluoro-4-oxo-7-(4-((5-oxo-2-phenyl-4-(quinolin-2-ylmethylene)-4,5-dihydro-1H-imidazol-1-yl)methyl)piperazin-1-yl)-1,4-dihydroquinoline-3-carboxylic acid at diverse concentrations ranging from 0.01 μM to 100 μM for 72 h. Then, cells were fixed at 4° C. for one hour with 150 μL of 10% trichloroacetic acid (TCA). After washing the cells five times with distilled water, 70 μL of sulforhodamine (SRB) solution (0.4% w/v) was added and incubated for 10 min at room temperature in a dark place. Cells were washed with 1% acetic acid three times and allowed to air-dry. Then, 150 μL of Tris pH 10.5 (10 mM) was added, and the absorbance was measured at 540 nm using a BMG LABTECH®-FLUOstar Omega microplate reader (Ortenberg, Germany). Half maximal inhibitory concentrations (IC50) values were calculated for each experiment using GraphPad Prism 6 software. IC50 values were reported as mean±SD.
(§4) The inhibition was calculated using the following equation: Inhibition %=100−Average Viability
(The SRB assay estimates cell density from bound dye.)

In data set [2] the test system is human osteosarcoma cells (MG-63). Description: Cytotoxicity by SRB assay, osteosarcoma cells. Particulars: MG-63, 72 h, mean±SD. It is filed as cell-based. On the procedure:
as §1, §2, §3, §4

Another data set addresses Bovine Serum Albumin (Bos taurus, UniProt P02769). Description: Bovine Serum Albumin assay (BSA), inhibition of protein denaturation. Particulars: pH 6.4, read-out: percentage inhibition of precipitation (protein denaturation). It is filed as biochemical. The procedure: In vitro-inflammatory activities of the tested samples were determined using a modified method of the BSA assay reported by Williams et al. BSA solution (0.4%, w/v) was prepared in Tris Buffered Saline. The pH was adjusted to 6.4 with glacial acetic acid. Different dilutions of 20, 40, 60, 80, and 100 μg/mL of the stock solutions were added to test tubes containing 1 mL of 0.4%, w/v BSA buffer solution. Both negative (solvent) and positive (aspirin) controls were assayed in a similar manner. The solutions were then heated in a water bath at 72° C. for 10 minutes and cooled for 20 minutes under laboratory conditions. The turbidity of the solutions (level of protein precipitation) was measured at 660 nm in Spectrophotometer (V-770 UV-Visible/NIR Spectrophotometer).
The percentage inhibition of precipitation (protein denaturation) was determined relative to the negative control using the following equation: […]

Sequence of Bovine Serum Albumin (P02769 25-607): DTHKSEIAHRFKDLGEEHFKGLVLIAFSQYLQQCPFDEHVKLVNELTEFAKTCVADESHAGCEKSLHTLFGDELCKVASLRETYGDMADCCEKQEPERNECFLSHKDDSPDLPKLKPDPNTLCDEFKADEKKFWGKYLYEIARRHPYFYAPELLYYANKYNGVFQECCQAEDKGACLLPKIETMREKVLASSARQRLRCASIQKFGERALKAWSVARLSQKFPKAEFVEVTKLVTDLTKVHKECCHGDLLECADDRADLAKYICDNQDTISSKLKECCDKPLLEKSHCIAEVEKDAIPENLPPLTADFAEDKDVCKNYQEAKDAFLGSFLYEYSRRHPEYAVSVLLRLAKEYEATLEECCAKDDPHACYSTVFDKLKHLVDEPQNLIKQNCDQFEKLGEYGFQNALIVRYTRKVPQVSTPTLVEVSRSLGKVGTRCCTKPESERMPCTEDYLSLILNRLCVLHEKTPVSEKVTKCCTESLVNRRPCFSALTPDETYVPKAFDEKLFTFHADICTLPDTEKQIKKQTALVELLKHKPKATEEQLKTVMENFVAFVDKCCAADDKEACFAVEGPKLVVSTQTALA

`O=C(O)c1cn(C2CC2)c2cc(N3CCN(CN4C(=O)/C(=C\c5ccc6ccccc6n5)N=C4c4ccccc4)CC3)c(F)cc2c1=O` [Compound 4, 1-cyclopropyl-6-fluoro-4-oxo-7-(4-((5-oxo-2-phenyl-4-(quinolin-2-ylmethylene)-4,5-dihydro-1H-imidazol-1-yl)methyl)piperazin-1-yl)-1,4-dihydroquinoline-3-carboxylic acid] yielded a melting point of 231 to 235 °C. Also, the IC50 in data set [1] (Homo sapiens, 72 h) was less than 4 µM. The same compound displayed an inhibition at 10 µg/mL in data set [1] (Homo sapiens, 72 h, Prostate cancer (PC-3), 10 μg/ml) of 94%. Also, half-maximal inhibition in data set [1] (listed as Our Product) (IC50) was put at 2.88 ± 0.03 µM. For the same compound, the Inhibition % in data set [1] (Prostate cancer (PC-3), 10 μg/ml, 72 h) came to 94.32%. In data set [2] (Homo sapiens), this compound gave an IC50 of less than 4 µM. In addition, half-maximal inhibition in data set [2] (listed as Our Product) (IC50) was put at 3.38 ± 0.2 µM. Moreover, on Bovine Serum Albumin, the inhibition at 100 µg/mL came to 88.1%.

`COc1cccc2c1C(=O)c1c(O)c3c(c(O)c1C2=O)C[C@@](O)(C(=O)CO)C[C@@H]3O[C@H]1C[C@H](N)[C@H](O)[C@H](C)O1` [DOX, Doxorubicin, reference compound]: the IC50 is 7.6 ± 0.45 µM in data set [1] (Homo sapiens, 72 h) and 9.4 ± 1.1 µM in data set [2] (Homo sapiens).

What is called IC50 is the midpoint of a concentration-inhibition curve. The low end stands for greater potency, the high end for weaker potency. A word on the melting point: it is the temperature, or range, at which the solid turns liquid.
